Experimental data as given in patent publication US20070219159A1, “CYCLODEXTRIN COMPOSITIONS AND METHODS OF TREATING VIRAL INFECTIONS” (priority 2002, published 2007).
Like-named read-outs stand apart in the source and are kept apart here.

Assays:
HCV = assay: In vitro anti-HCV assay in HCV RNA-replicating cell line AVA5; format: cell-based
Protocol: The antiviral activity of test compounds were assayed in the stably HCV RNA-replicating cell line. AVA5, derived by transfection of the human hepatoblastoma cell line, Huh^7 (Blight et al., 2000). Experimental drugs were added to dividing cultures once daily for three days. Media was changed with each addition of compound. Cultures generally started the assays at 50% confluence and reached confluence during the last day of treatment. HCV RNA and cellular β-actin RNA levels were assessed 24 hours after the last dose of compound using dot blot hybridization. Assays were conducted using a single dose of test compound (in triplicate cultures).
Both HCV and β-actin RNA levels in the treated cultures were expressed as a percentage of the mean levels of RNA detected in untreated cultures. β-actin RNA levels were used both as a measure of toxicity, and to normalize the amount of cellular RNA in each sample. A level of 30% or less HCV RNA (relative to control cultures) was considered to be a positive antiviral effect, and a level of 50% or less β-actin RNA (relative to control cultures) is considered to be a cytotoxic effect.
Dividing cultures of AVAB cells were treated once daily for three days (media was changed with each addition of compound) with 4 concentrations of test compounds (3 cultures per concentration). A total of 6 untreated control cultures, and triplicate cultures treated with 10, 3, and 1 IU/ml α-interferon (active antiviral with no cytotoxicity), and 100, 10, and 1 μM ribavir ([…]) served as controls. HCV RNA and cellular β-actin FNA levels were assessed 24 hours after the last dose of compound using dot blot hybridization. β-actin RNA levels were used to normalize the amount of cellular RNA in each sample.
Toxicity analyses were performed on separate plates from those used for the antiviral assays. Cells for the toxicity analyses were cultured and treated with test compounds with the same schedule and under identical culture conditions used for the antiviral evaluations. Each compound was tested at 4 concentrations, each in triplicate cultures. Uptake of neutral red dye was used to determine the relative level of toxicity 24 hours following the last treatment. The absorbance of internalized dye at […] (A510) was used for the quantitative analysis. Values in test cultures were compared to 9 cultures of untreated cells maintained on the same plate as the test cultures.
Assays similar to those described above were conducted.

HSV-1 = settings: in general 1000-fold less drug than Examples 1-6 and 10
HSV-2 = settings: in general 1000-fold less drug than Examples 1-6 and 10
West Nile = assay: In vitro antiviral screening (Table 1), West Nile
HSV-1 strain KOS1.1 = format: cell-based
[1] = system: dlsptk (an ACV-resistant, tk deletion mutant of HSV-1); format: cell-based; settings: MOI 10, 20 μM (4.5 μg/ml) ACV or 6.4 mg/ml β-CD for 24 hours
Vero cells = assay: Cell viability by LDH release assay; format: cell-based; settings: acyclovir 400 μg/ml, 24 and 48 hours, Vero cells
Protocol: FIG. 3 depicts the effects of ACV alone (400 μg/ml) and β-CD alone (8 mg/ml) on the viability of Vero cells as monitored by the LDH release assay after 24 hours of treatments (A); and after 48 hours of treatments (B). All data represents means+SD of two separate experiments.
Cell viability assay. Cell viability was determined fluorometrically by estimating the release of LDH into the media (Moran and Schnellman, 1996). LDH activity was based on the reduction of pyruvate to lactate. The concomitant oxidation of NADH results in a decrease in the fluorescence emission at 450 nm with excitation wavelength 355 nm, and the rate of disappearance of NADH is indicative of LDH activity.
To study the effects of formulations on viability of preformed monolayers, 3 to 4×10^6 Vero cells were added to 1× MEM-5% FBS in T75 flasks. […] Used media were replaced with 15 ml of treatment media, containing 5× MEM-FBS diluted to 1× with water (control), acyclovir stock (400 μg/ml), or β-CD stock (8 mg/ml in water). […]
Reaction solution was made fresh for each experiment by mixing 0.4 ml of 16.2 mM pyruvate with 10 ml of 0.2 mM NADH in phosphate buffer (pH 7.5). […] The amount of LDH calculated for either condition was then compared with and expressed as a percentage of the total LDH present.
Used media were replaced with 15 ml/flask or 2.5 ml/well of treatment media, containing 5× MEM-FBS diluted to 1× with water (control), and […]CD stock. […] Live cells are distinguished by the presence of intracellular esterase activity, as determined by the enzymatic conversion of calcein-AM (nonfluorescent) to calcein (green fluorescence). EthD-1 enters cells with damaged cell membranes and binds to nucleic acids producing red fluorescence to identify dead cells. […] For LDH assays, cells were trypsinized, resuspended in fresh 1× medium, kept at 37° C.-5% CO2 atmosphere, and total LDH present in cells and medium was determined after lysing the cells with 350 μM digitonin. The amount of LDH calculated for either condition was then compared with and expressed as a percentage of the total LDH present. […]

Molecule	S.I. for HCV (HCV)	SI = CC50/EC50 (HSV-1)	SI = CC50/EC50 (HSV-2)	SI = CC50/EC50 (VZV)	SI = CC50/EC50 (HCMV)	SI = CC50/EC50 (MCMV)	SI = CC50/EC50 (HHV-6)	SI = CC50/EC50 (HHV-7)	SI = CC50/EC50 (Flu A)	SI = CC50/EC50 (Flu B)	SI = CC50/EC50 (RSV)	SI = CC50/EC50 (PIV)	SI = CC50/EC50 (MV)	SI = CC50/EC50 (HRV)	SI = CC50/EC50 (Ad)	SI = CC50/EC50 (Resp syncytial)	SI = CC50/EC50 (Rhino)	SI = CC50/EC50 (Vaccinia)	SI = CC50/EC50 (Cowpox)	SI = CC50/EC50 (West Nile)	other results
OC[C@H]1O[C@@H]2O[C@H]3[C@H](O)[C@@H](O)[C@@H](O[C@H]4[C@H](O)[C@@H](O)[C@@H](O[C@H]5[C@H](O)[C@@H](O)[C@@H](O[C@H]6[C@H](O)[C@@H](O)[C@@H](O[C@H]7[C@H](O)[C@@H](O)[C@@H](O[C@H]8[C@H](O)[C@@H](O)[C@@H](O[C@H]9[C@H](O)[C@@H](O)[C@@H](O[C@H]1[C@H](O)[C@H]2O)O[C@@H]9CO)O[C@@H]8CO)O[C@@H]7CO)O[C@@H]6CO)O[C@@H]5CO)O[C@@H]4CO)O[C@@H]3CO [GCD, γ-cyclodextrin]	1.04	0	0	0	0	0	0	0	0	0	0	0	0	0	0	0	0	0	0	0	SI = CC50/EC50 (EBV): 0; SI = CC50/EC50 (Measles): 0; SI = CC50/EC50 (VEE): 0; SI = CC50/EC50 (Punta Toro): 0; SI = CC50/EC50 (Pichinde): 0; SI = CC50/EC50 (Yellow fever): 0
α-interferon	–	–	–	–	–	–	–	–	–	–	–	–	–	–	–	–	–	–	–	–	approximate EC90 (HCV; positive antiviral control, no cytotoxicity): ~10 IU/ml
hydroxypropyl γ-cyclodextrin [HPGCD]	1.39	–	–	–	–	–	–	–	–	–	–	–	–	–	–	–	–	–	–	0	SI = CC50/EC50, value in parenthesis calculated by DNA hybridization (EBV; DNA hybridization): 6.2
Nc1nc2c(ncn2COCCO)c(=O)[nH]1 [ACV, acyclovir, reference compound]	–	–	–	–	–	–	–	–	–	–	–	–	–	–	–	–	–	–	–	–	reduction of KOS1.1 yield at 24 hours (HSV-1 strain KOS1.1; 4.5 μg/ml ACV, MOI 10, post-infection treatment): 10^2 fold; yield of cell-free and cell-associated virus (HSV-1 strain KOS1.1; 24 hours post-infection, MOI 50, BCD 7.2 mg/ml, ACV 400 μg/ml or both, pre, during and post infection treatment (FIG. 1)): markedly decreased; effect on yield of acyclovir-sensitive HSV KOS1.1 (FIG. 2) (HSV-1 strain KOS1.1; MOI 10, 20 μM ACV or 6.4 mg/ml β-CD for 24 hours): able to lower the yield; effect on yield of acyclovir-resistant dlsptk virus (FIG. 2) [1]: no activity; effect on yield of acyclovir-resistant dlsptk virus (FIG. 2) ([1]; listed as acyclovir): not of the acyclovir -resistant mutant; drug-related cell killing (Vero cells): no drug-related cell killing
CC(O)COC[C@H]1O[C@@H]2O[C@H]3[C@H](O)[C@@H](O)[C@@H](O[C@H]4[C@H](O)[C@@H](O)[C@@H](O[C@H]5[C@H](O)[C@@H](O)[C@@H](O[C@H]6[C@H](O)[C@@H](O)[C@@H](O[C@H]7[C@H](O)[C@@H](O)[C@@H](O[C@H]8[C@H](O)[C@@H](O)[C@@H](O[C@H]1[C@H](O)[C@H]2O)O[C@@H]8COCC(C)O)O[C@@H]7COCC(C)O)O[C@@H]6COCC(C)O)O[C@@H]5COCC(C)O)O[C@@H]4COCC(C)O)O[C@@H]3COCC(C)O (stereo partly drawn) [HPBCD, hydroxypropyl β-cyclodextrin]	1.26	0	0	0	0	0	0	0	0	0	0	0	0	0	0	0	0	0	0	0	SI = CC50/EC50 (Measles): 0; SI = CC50/EC50 (VEE): 0; SI = CC50/EC50 (Punta Toro): 0; SI = CC50/EC50 (Pichinde): 0; SI = CC50/EC50 (Yellow fever): 0
hydroxypropyl α-cyclodextrin [HPACD]	0.97	–	–	–	–	–	–	–	–	–	–	–	–	–	–	–	–	–	–	0	–
